Assay results taken from article PMC5112770 (ACS chemical neuroscience, 2015).
Read-outs that look alike come from different tables or passages of the source.

Assays:
tau [1] = molecular target: T1, tau (Homo sapiens, UniProt P10636); type: biochemical
tau [2] = molecular target: T1, tau; type: biochemical; remark: listed apart in the source

T1 sequence (P10636 1-441 isoform P10636-8): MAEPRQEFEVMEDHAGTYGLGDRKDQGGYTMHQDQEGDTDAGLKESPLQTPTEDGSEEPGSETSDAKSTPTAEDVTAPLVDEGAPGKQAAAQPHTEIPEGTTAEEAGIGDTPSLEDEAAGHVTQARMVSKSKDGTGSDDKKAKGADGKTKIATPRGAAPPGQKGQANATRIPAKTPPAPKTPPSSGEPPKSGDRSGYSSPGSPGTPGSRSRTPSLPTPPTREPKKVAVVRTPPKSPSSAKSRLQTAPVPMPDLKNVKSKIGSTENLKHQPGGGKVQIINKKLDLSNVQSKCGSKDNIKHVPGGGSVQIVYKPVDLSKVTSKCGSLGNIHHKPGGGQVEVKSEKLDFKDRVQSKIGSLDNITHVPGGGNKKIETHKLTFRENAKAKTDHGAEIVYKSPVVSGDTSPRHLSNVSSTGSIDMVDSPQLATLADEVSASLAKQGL

Structure (SMILES)	IC50 (tau [1]) [µM]	IC50 (tau [2]) [µM]
CC[C@H](C)/C=C(C)/C=C/C1=CC2=C(Br)C(=O)C(C)(OC(C)=O)C(=O)C2=CO1 (some centres unmarked) [aza-9]	56 ± 14	
CC[C@H](C)/C=C(C)/C=C/C1=CC2=C(Br)C(=O)C(C)(O)C(=O)C2=CO1 (some centres unmarked) [aza-13]		216 ± 18
